Data reported in US20070104648A1, “Compositions, methods of preparing amino acids, and nuclear magnetic resonance spectroscopy” (Glyconix Corporation, priority 2005, published 2007).

Legend:
[1] = Binding constants (pK) of L-p-BPA carbohydrate/polyol complexes by 1H-NMR integration of aromatic protons; format: physicochemical; conditions: 1H-NMR in D2O buffered to physiological pH (7.4); free L-p-BPA vs complex aromatic protons; three concentrations
Excerpt: For fructose and sorbose, or when a large excess of another carbohydrate or polyol is used, the p-BPA remains in solution at a pH of 7.4, and approximately 90% of the p-BPA is present as its sodium carboxylate, with the remainder as its free acid. A large excess of carbohydrate or polyol is preferred when pK is small; however, for complexes with a pK>about 3 a large excess in not need. The ratio of free p-BPA to p-BPA:carbohydrate complex can be determined by integration of the aromatic protons resonances (p-BPA, 7.73 and 7.33 ppm; p-BPA-carbohydrate complex, 7.5 and 7.2 ppm) in the 1H-NMR spectrum using D2O buffered to physiological pH as the solvent. For example, L-p-boronophenylalanine fructose complex has a pK of 3.2 while the meso-erythitol complex has a pK of 1.0, the threitol complex has a pK of 1.3, the adonitol complex has a pK of 1.7, the arabitol complex has a pK of 2.3, the rhamnitol complex has a pK of 2.3, the xylitol complex has a pK of 2.5, the talitol complex has pK of 2.4, the dulcitol complex has a pK of 2.7, the mannitol complex has a pK of 2.7, the 1-aminodulcitol complex has a pK of 2.9, the sorbitol complex has a pK of 3.2, the 1-aminosorbitol complex has a pK of 3.4, the isomaltitol complex has a pK of 3.4, the cellobiitol complex has a pK of 3.5, the lactitol complex has a pK of 3.7, the maltitol complex has a pK of 3.9, the volemitol complex has a pK of 2.9, the perseitol complex has a pK of 3.1, the glucoheptitol complex has a pK of 3.9, and the alpha,alpha-glucooctitol complex has a pK of 4.1.
L-p-Boronophenylalanine-polyol or -aminopolyol complexes are prepared by combining 0.5 mM of alpha-deuterated or alpha-hydrogenated L-p-BPA with between 1.00 and 1.05 equivalents of complexing agent (with the exception of poorly complexing polyols and carbohydrates, in which up to 4.3 equivalents of polyol or carbohydrates are used) in 2 mL of water. One equivalent of NaOH (1 mL of 0.5 M) is then added and the slurry gently warmed if needed in order to dissolve all solids. The pH is then monitored and reduced to between 7.5 and 7.3 by the addition of Dowex50WX4-50 ion exchange resin. The clear solution is then passed through a 0.2 μm syringe filter and then freeze-dried to constant weight. ^1H and ^13C NMR spectra are recorded on a GE 300 MHz FT-NMR spectrometer with D2O buffered at 7.4 [Bates, R G, Bower, V E. 1956. Alkaline solutions for pH control. Anal. Chem. 28:1322-1324] as the solvent. The binding constants are calculated at three different concentrations by integration of the free L-p-BPA aromatic protons (7.73 and 7.33 ppm) compared with those of the L-p-BPA complexes (7.5 and 7.2 ppm). Spectra of the 1:1 complexes are reported.

[2] = physiological pH; cited from earlier work

pK of the p-BPA:carbohydrate/polyol complex (binding constant) [1]	Compound	water solubility [2]
3.9	L-p-boronophenylalanine-α-glucoheptitol complex	
3.7	L-p-boronophenylalanine-lactitol complex	
3.9	L-p-boronophenylalanine-maltitol complex	
3.2	L-p-boronophenylalanine fructose complex [reference compound]	
3.1	L-p-boronophenylalanine-persietol complex [perseitol complex]	
2.5	L-p-boronophenylalanine-xylitol complex	
3.4	L-p-boronophenylalanine-isomaltitol complex	
	N[C@@H](Cc1ccc(B(O)O)cc1)C(=O)O [BPA, para-boronophenylalanine]	poor water solubility
3.2	L-p-boronophenylalanine-sorbitol complex	
2.7	L-p-boronophenylalanine-dulcitol complex	
2.9	L-p-boronophenylalanine-aminodulcitol complex [1-aminodulcitol complex]	
4.1	L-p-boronophenylalanine-α,α-glucooctitol complex [alpha,alpha-glucooctitol complex]	
3.5	L-p-boronophenylalanine-cellobiitol complex	
2.3	L-p-boronophenylalanine-rhamnitol complex	
3.4	L-p-boronophenylalanine-aminosorbitol complex [1-aminosorbitol complex]	
2.7	L-p-boronophenylalanine-mannitol complex	
2.9	L-p-boronophenylalanine-volemitol complex	
